In ChEMBL document CHEMBL1145395, “De novo design of selective antibiotic peptides by incorporation of unnatural amino acids” (J Med Chem, 2007):
Converted amounts (≈) assume the structure as drawn. The source made the active and inactive calls. The calls are words filed in the database; no cut-off is given here. Non-standard residues stand in square brackets, D forms with d. Residues, ends and D or L forms follow the SMILES beside them. ξ: configuration not given here. Pro(3ξ,4ξ-(CH2)4) = O=C(O)[C@H]1NCC2CCCCC21; Pro(3,4-benzo) = O=C(O)[C@H]1NCc2ccccc21; Tic = O=C(O)[C@@H]1Cc2ccccc2CN1; βAla = NCCC(=O)O

Experiments:
[1] = Toxicity to mouse RBC assessed as hemolytic activity at 100 uM; format: cell-based, Erythrocyte; settings: red blood cells, read-out: Activity
Staphylococcus aureus = assay: Antibacterial activity against methicillin/gentamicin/tetracycline resistant Staphylococcus aureus ATCC 33592; format: functional
Salmonella typhimurium = assay: Antibacterial activity against Salmonella Typhimurium ATCC 13311; format: functional; settings: Salmonella enterica subsp. enterica serovar Typhimurium

Compound	hemolysis at 100 µM [1]	MIC (Staphylococcus aureus)	Activity (Salmonella typhimurium)	Activity (Staphylococcus aureus)
CC(C)C[C@H](NC(=O)CNC(=O)[C@H](CCCCN)NC(=O)CN)C(=O)N1Cc2ccccc2C[C@H]1C(=O)N1CC2CCCCC2[C@H]1C(=O)NCC(=O)N[C@@H](CC(C)C)C(=O)N1Cc2ccccc2C[C@H]1C(=O)N1CC2CCCCC2[C@H]1C(=O)NCC(=O)N[C@@H](CCCCN)C(=O)N1Cc2ccccc2C[C@H]1C(=O)N1CC2CCCCC2[C@H]1C(=O)NCC(=O)N[C@@H](CC(C)C)C(=O)N1Cc2ccccc2C[C@H]1C(=O)N1CC2CCCCC2[C@H]1C(=O)NCC(=O)N[C@@H](CCCCN)C(=O)N1Cc2ccccc2C[C@H]1C(=O)N1CC2CCCCC2[C@H]1C(=O)NCC(=O)N[C@@H](CC(C)C)C(=O)N1Cc2ccccc2C[C@H]1C(=O)N1CC2CCCCC2[C@H]1C(=O)NCC(=O)N[C@@H](CCCCN)C(=O)N[C@@H](CCCNC(=N)N)C(N)=O (stereo partly drawn) (H-GKGL[Tic][Pro(3ξ,4ξ-(CH2)4)]GL[Tic][Pro(3ξ,4ξ-(CH2)4)]GK[Tic][Pro(3ξ,4ξ-(CH2)4)]GL[Tic][Pro(3ξ,4ξ-(CH2)4)]GK[Tic][Pro(3ξ,4ξ-(CH2)4)]GL[Tic][Pro(3ξ,4ξ-(CH2)4)]GKR-NH2)	100%	100 µM (≈ 346 µg/mL)	inactive	–
CSCC[C@H](NC(=O)[C@H](CC(C)C)NC(=O)[C@H](CCC(=O)O)NC(=O)[C@@H]1C2CCCCC2CN1C(=O)[C@@H]1Cc2ccccc2CN1C(=O)[C@H](CCCCN)NC(=O)CNC(=O)[C@@H]1C2CCCCC2CN1C(=O)[C@@H]1Cc2ccccc2CN1C(=O)[C@H](CC(C)C)NC(=O)CNC(=O)[C@@H]1C2CCCCC2CN1C(=O)[C@@H]1Cc2ccccc2CN1C(=O)[C@H](CCCCN)NC(=O)CNC(=O)[C@@H]1C2CCCCC2CN1C(=O)[C@@H]1Cc2ccccc2CN1C(=O)[C@H](CC(C)C)NC(=O)CNC(=O)[C@@H]1C2CCCCC2CN1C(=O)[C@@H]1Cc2ccccc2CN1C(=O)[C@H](CO)NC(=O)[C@H](CC(N)=O)NC(=O)[C@H](CCSC)NC(=O)[C@H](CC(C)C)NC(=O)[C@@H](N)CCC(=O)O)C(=O)N[C@@H](CC(N)=O)C(=O)N[C@@H](CO)C(N)=O (stereo partly drawn) (H-ELMNS[Tic][Pro(3ξ,4ξ-(CH2)4)]GL[Tic][Pro(3ξ,4ξ-(CH2)4)]GK[Tic][Pro(3ξ,4ξ-(CH2)4)]GL[Tic][Pro(3ξ,4ξ-(CH2)4)]GK[Tic][Pro(3ξ,4ξ-(CH2)4)]ELMNS-NH2)	3%	–	inactive	inactive
CSCC[C@H](NC(=O)[C@H](CC(C)C)NC(=O)[C@H](CCC(=O)O)NC(=O)[C@@H]1c2ccccc2CN1C(=O)[C@@H]1Cc2ccccc2CN1C(=O)[C@H](Cc1ccccc1)NC(=O)CCNC(=O)[C@@H]1c2ccccc2CN1C(=O)[C@@H]1Cc2ccccc2CN1C(=O)[C@H](CCCCN)NC(=O)CCNC(=O)[C@@H]1c2ccccc2CN1C(=O)[C@@H]1Cc2ccccc2CN1C(=O)[C@H](Cc1ccccc1)NC(=O)CCNC(=O)[C@@H]1c2ccccc2CN1C(=O)[C@@H]1Cc2ccccc2CN1C(=O)[C@H](CCCCN)NC(=O)CCNC(=O)CCNC(=O)CNC(=O)[C@H](CC(C)C)NC(=O)CNC(=O)[C@H](CCCCN)NC(=O)CNC(=O)[C@@H](N)CCC(=O)O)C(=O)N[C@@H](CC(N)=O)C(=O)N[C@@H](CO)C(N)=O (H-EGKGLG[βAla][βAla]K[Tic][Pro(3,4-benzo)][βAla]F[Tic][Pro(3,4-benzo)][βAla]K[Tic][Pro(3,4-benzo)][βAla]F[Tic][Pro(3,4-benzo)]ELMNS-NH2)	27%	–	–	–
CC(C)C[C@H](NC(=O)[C@@H]1C2CCCCC2CN1C(=O)[C@@H]1Cc2ccccc2CN1C(=O)CNC(=O)[C@H](CCCCN)NC(=O)CNC(=O)[C@@H]1C2CCCCC2CN1C(=O)[C@@H]1Cc2ccccc2CN1C(=O)[C@H](CO)NC(=O)[C@H](CC(C)C)NC(=O)[C@@H](N)CCC(=O)O)C(=O)N[C@@H](CCCCN)C(=O)N[C@@H](CCC(=O)O)C(=O)N[C@@H](CO)C(N)=O (stereo partly drawn) (H-ELS[Tic][Pro(3ξ,4ξ-(CH2)4)]GKG[Tic][Pro(3ξ,4ξ-(CH2)4)]LKES-NH2)	23%	–	–	–
